Columns and labels:
Assay in all cases: post-emergence herbicidal activity, greenhouse
Format in all cases: in vivo
Soybean = details: Table III, 2 WAT
Outline: (§1)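 Plants grown two to three weeks in greenhouse soil pans were atomizer-sprayed with test chemical in spray containing about 0.4% emulsifier, at the listed rates. Injury relative to unsprayed controls observed at approximately two and four weeks after treatment.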

Canada Thistle = details: Table II, formulated immediately prior to treatment
Outline: as §1

Downy Brome = test system: Downy Brome
Outline: as §1

Hemp Sesbania = details: Table III, 2 WAT
Outline: as §1

Rice = details: Table III, 2 WAT
Outline: as §1

Yellow Nutsedge = details: Table II, formulated immediately prior to treatment
Outline: (§2)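 Plants grown from seed or vegetative propagules in topsoil pans on a greenhouse sand bench, watered from below, were atomizer-sprayed at two to three weeks of age. The spray carried about 0.4% by weight emulsifier. Injury relative to unsprayed control pans was scored approximately two and four weeks after treatment.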

Barnyardgrass = test system: Barnyardgrass
Outline: as §1

Wild Buckwheat = details: Table III, 2 WAT
Outline: as §1

Panicum Spp = details: Table III; 2 WAT; 5.6 kg/h
Outline: as §1

Large Crabgrass = details: Table III; 2 WAT; 5.6 kg/h
Outline: as §1

Morningglory = test system: Morningglory
Outline: as §1

Velvetleaf = test system: Velvetleaf
Outline: as §1

Cocklebur = test system: Cocklebur
Outline: as §1

Pennsylvania Smartweed = test system: Pennsylvania Smartweed
Outline: as §1

Quackgrass = details: Table II, formulated immediately prior to treatment
Outline: as §2

Common Lambsquarters = test system: Common Lambsquarters
Outline: as §1

Johnsongrass = details: Table II, formulated immediately prior to treatment
Outline: as §1

Sugar Beet = details: Table III; 2 WAT; 5.6 kg/h
Outline: as §1

[1] = Table II, 2 WAT, 5.6 kg/h, formulated immediately prior to treatment
[2] = Table II, 2 WAT, 11.2 kg/h, formulated immediately prior to treatment
[3] = Table II, 4 WAT, 5.6 kg/h, formulated immediately prior to treatment
[4] = Table II, 4 WAT, 11.2 kg/h, formulated immediately prior to treatment

SMILES: CC(C)(C)[Si](C)(C)OP(=O)(CNCC(=O)OCCc1ccccc1)O[Si](C)(C)C(C)(C)C [Ex. 10, Glycine, N--((Bis[((1,1-Dimethylethyl)Dimethylsilyl)Oxy]Phosphinyl)Methyl)-,2-Phenylethyl Ester Hydrate]
- Plant Response Index (L) (Soybean; 1.1 kg/h): 0 (0-24% inhibition)
- Plant Response Index (L) (Soybean; 5.6 kg/h): 0 (0-24% inhibition)
- Plant Response Index (A) (Canada Thistle; 2 WAT, 5.6 kg/h): 0 (0-24% inhibition)
- Plant Response Index (A) (Canada Thistle; 2 WAT, 11.2 kg/h): 2 (50-74% inhibition)
- Plant Response Index (A) (Canada Thistle; 4 WAT, 5.6 kg/h): 0 (0-24% inhibition)
- Plant Response Index (A) (Canada Thistle; 4 WAT, 11.2 kg/h): 2 (50-74% inhibition)
- Plant Response Index (J) (Downy Brome; [1]): 0 (0-24% inhibition)
- Plant Response Index (J) (Downy Brome; [2]): 1 (25-49% inhibition)
- Plant Response Index (J) (Downy Brome; [3]): 0 (0-24% inhibition)
- Plant Response Index (J) (Downy Brome; [4]): 1 (25-49% inhibition)
- Plant Response Index (J) (Downy Brome; Table III, 2 WAT, 1.1 kg/h): 0 (0-24% inhibition)
- Plant Response Index (J) (Downy Brome; Table III, 2 WAT, 5.6 kg/h): 1 (25-49% inhibition)
- Plant Response Index (R) (Hemp Sesbania; 1.1 kg/h): 0 (0-24% inhibition)
- Plant Response Index (R) (Hemp Sesbania; 5.6 kg/h): 0 (0-24% inhibition)
- Plant Response Index (O) (Rice; 1.1 kg/h): 0 (0-24% inhibition)
- Plant Response Index (O) (Rice; 5.6 kg/h): 0 (0-24% inhibition)
- Plant Response Index (G) (Yellow Nutsedge; 2 WAT, 5.6 kg/h): 1 (25-49% inhibition)
- Plant Response Index (G) (Yellow Nutsedge; 2 WAT, 11.2 kg/h): 2 (50-74% inhibition)
- Plant Response Index (G) (Yellow Nutsedge; 4 WAT, 5.6 kg/h): 2 (50-74% inhibition)
- Plant Response Index (G) (Yellow Nutsedge; 4 WAT, 11.2 kg/h): 2 (50-74% inhibition)
- Plant Response Index (K) (Barnyardgrass; [1]): 1 (25-49% inhibition)
- Plant Response Index (K) (Barnyardgrass; [2]): 2 (50-74% inhibition)
- Plant Response Index (K) (Barnyardgrass; [3]): 2 (50-74% inhibition)
- Plant Response Index (K) (Barnyardgrass; [4]): 3 (75-99% inhibition)
- Plant Response Index (K) (Barnyardgrass; Table III, 2 WAT, 5.6 kg/h): 2 (50-74% inhibition)
- Plant Response Index (Q) (Wild Buckwheat; 1.1 kg/h): 0 (0-24% inhibition)
- Plant Response Index (Q) (Wild Buckwheat; 5.6 kg/h): 0 (0-24% inhibition)
- Plant Response Index (S) (Panicum Spp): 3 (75-99% inhibition)
- Plant Response Index (T) (Large Crabgrass): 3 (75-99% inhibition)
- Plant Response Index (D) (Morningglory; [1]): 1 (25-49% inhibition)
- Plant Response Index (D) (Morningglory; [2]): 2 (50-74% inhibition)
- Plant Response Index (D) (Morningglory; [3]): 0 (0-24% inhibition)
- Plant Response Index (D) (Morningglory; [4]): 2 (50-74% inhibition)
- Plant Response Index (D) (Morningglory; Table III, 2 WAT, 5.6 kg/h): 0 (0-24% inhibition)
- Plant Response Index (C) (Velvetleaf; [1]): 0 (0-24% inhibition)
- Plant Response Index (C) (Velvetleaf; [2]): 2 (50-74% inhibition)
- Plant Response Index (C) (Velvetleaf; [3]): 0 (0-24% inhibition)
- Plant Response Index (C) (Velvetleaf; [4]): 2 (50-74% inhibition)
- Plant Response Index (C) (Velvetleaf; Table III, 2 WAT, 5.6 kg/h): 2 (50-74% inhibition)
- Plant Response Index (B) (Cocklebur; [1]): 1 (25-49% inhibition)
- Plant Response Index (B) (Cocklebur; [2]): 2 (50-74% inhibition)
- Plant Response Index (B) (Cocklebur; [3]): 0 (0-24% inhibition)
- Plant Response Index (B) (Cocklebur; [4]): 2 (50-74% inhibition)
- Plant Response Index (B) (Cocklebur; Table III, 2 WAT, 1.1 kg/h): 0 (0-24% inhibition)
- Plant Response Index (B) (Cocklebur; Table III, 2 WAT, 5.6 kg/h): 2 (50-74% inhibition)
- Plant Response Index (F) (Pennsylvania Smartweed; [1]): 1 (25-49% inhibition)
- Plant Response Index (F) (Pennsylvania Smartweed; [2]): 3 (75-99% inhibition)
- Plant Response Index (F) (Pennsylvania Smartweed; [3]): 1 (25-49% inhibition)
- Plant Response Index (F) (Pennsylvania Smartweed; [4]): 3 (75-99% inhibition)
- Plant Response Index (F) (Pennsylvania Smartweed; Table III, 2 WAT, 1.1 kg/h): 2 (50-74% inhibition)
- Plant Response Index (F) (Pennsylvania Smartweed; Table III, 2 WAT, 5.6 kg/h): 2 (50-74% inhibition)
- Plant Response Index (H) (Quackgrass; 2 WAT, 5.6 kg/h): 0 (0-24% inhibition)
- Plant Response Index (H) (Quackgrass; 2 WAT, 11.2 kg/h): 1 (25-49% inhibition)
- Plant Response Index (H) (Quackgrass; 4 WAT, 5.6 kg/h): 0 (0-24% inhibition)
- Plant Response Index (H) (Quackgrass; 4 WAT, 11.2 kg/h): 1 (25-49% inhibition)
- Plant Response Index (E) (Common Lambsquarters; [1]): 2 (50-74% inhibition)
- Plant Response Index (E) (Common Lambsquarters; [2]): 3 (75-99% inhibition)
- Plant Response Index (E) (Common Lambsquarters; [3]): 3 (75-99% inhibition)
- Plant Response Index (E) (Common Lambsquarters; [4]): 3 (75-99% inhibition)
- Plant Response Index (E) (Common Lambsquarters; Table III, 2 WAT, 1.1 kg/h): 2 (50-74% inhibition)
- Plant Response Index (E) (Common Lambsquarters; Table III, 2 WAT, 5.6 kg/h): 3 (75-99% inhibition)
- Plant Response Index (I) (Johnsongrass; 2 WAT, 5.6 kg/h): 0 (0-24% inhibition)
- Plant Response Index (I) (Johnsongrass; 2 WAT, 11.2 kg/h): 1 (25-49% inhibition)
- Plant Response Index (I) (Johnsongrass; 4 WAT, 5.6 kg/h): 0 (0-24% inhibition)
- Plant Response Index (I) (Johnsongrass; 4 WAT, 11.2 kg/h): 1 (25-49% inhibition)
- Plant Response Index (M) (Sugar Beet): 3 (75-99% inhibition)

Source: patent US4471131A, “Novel silyl esters of N-phosphonomethylglycine” (Monsanto Company, priority 1983, dated 1984)
